Data on 57 molecules can be found in the Kinase Knowledgebase extract (Sharma et al. 2016).

The target of this assay is PIK3CB;PIK3CG;PIK3CD;PIK3CA (human) (UniProt P48736). Kind of assay: Enzyme Assay.

By pIC50 is commonly meant the IC50 on a negative log10 scale, so that one unit is a factor of ten.

Each structure is given as a SMILES string. pIC50: −log10 of the molar value.

`O=C(c1nn([C@H]2CCCN(C3CCCOC3)C2)c2c1CS(=O)(=O)c1c(F)cccc1-2)N1CCOCC1` (some centres not stated) showed a negative logarithm of the IC50 (pIC50) of 7.60. The figure for `COC1CN(Cc2ccc(-n3nc(C(=O)N4CCOCC4)c4c3-c3ccccc3S(=O)(=O)C4)cc2)C1` is 6.78; for `CC(C)Cn1nc(C(=O)N2CCOCC2)c2c1-c1ccccc1S(=O)(=O)C2` it is 6.02; for `O=C(c1nn([C@H]2CCN(C3CCOCC3)C2)c2c1CS(=O)(=O)c1c(F)cccc1-2)N1CCOCC1` it is 7.28. The figure for `O=C(c1ccc2c(c1)-c1c(c(C(=O)N3CCOCC3)nn1-c1ccccc1)CS2(=O)=O)N1CCCCC1` is 5.47.

As to `Cc1noc(C)c1-c1cccc(-n2nc(C(=O)N3CCOCC3)c3c2-c2ccccc2S(=O)(=O)C3)c1`, the negative-log IC50 (pIC50) was 6.52. For `COc1cccc(Cn2nc(C(=O)N3CCOCC3)c3c2-c2ccccc2S(=O)(=O)C3)c1` the value was 5.93; for `COCCn1nc(C(=O)N2CCOCC2)c2c1-c1ccccc1S(=O)(=O)C2`, 5.89.

As to `Cc1ccccc1-n1nc(C(=O)N2CCOCC2)c2c1-c1ccccc1S(=O)(=O)C2`, the negative logarithm of the IC50 (pIC50) is 5.64. For the molecule `Nc1ccc2c(c1)S(=O)(=O)Cc1c(C(=O)N3CCOCC3)nn(-c3ccccc3)c1-2`, the negative logarithm of the IC50 (pIC50) is 5.95. For `COC1CN(Cc2cccc(-n3nc(C(=O)N4CCOCC4)c4c3-c3ccccc3S(=O)(=O)C4)c2)C1`, the pIC50 is 6.56. For `O=C(c1nn(C2CCN(CCN3CC[C@@H](F)C3)C2)c2c1CS(=O)(=O)c1ccccc1-2)N1CCOCC1` (some centres not stated) the value was 6.92; for `O=C(c1nn(C2CCCN(CCF)C2)c2c1CS(=O)(=O)c1ccccc1-2)N1CCOCC1` (configuration not stated), 6.49; for `O=C(c1nn(-c2ccc3[nH]ncc3c2)c2c1CS(=O)(=O)c1ccccc1-2)N1CCOCC1`, 5.79. In the case of `O=C(c1nn([C@@H]2CCCN(CCC3CCOCC3)C2)c2c1CS(=O)(=O)c1ncccc1-2)N1CCOCC1`, the pIC50 was 7.00. The figure for `O=C(c1nn(C2CCN(CCN3CC(F)(F)C3)C2)c2c1CS(=O)(=O)c1ccccc1-2)N1CCOCC1` (configuration not stated) is 6.81. For `O=C(c1nn([C@H]2CCN(CCC3CCOCC3)C2)c2c1CS(=O)(=O)c1c(F)cccc1-2)N1CCOCC1`, the negative-log IC50 (pIC50) was 7.04. The figure for `CC(=O)N1CCC(Cn2nc(C(=O)N3CCOCC3)c3c2-c2ccccc2S(=O)(=O)C3)CC1` is 5.55; for `O=C(c1nn(-c2ccc(CNC3CCCOC3)cc2)c2c1CS(=O)(=O)c1ccccc1-2)N1CCOCC1` (configuration not stated) it is 6.65; for `Cc1ccccc1-c1cccc(-n2nc(C(=O)N3CCOCC3)c3c2-c2ccccc2S(=O)(=O)C3)c1` it is 5.97. `O=C(c1nn(C2CCCN(C3COC3)C2)c2c1CS(=O)(=O)c1ccccc1-2)N1CCOCC1` (configuration not stated) had a pIC50 of 7.17. The molecule `COCCN1CCC[C@H](n2nc(C(=O)N3CCOCC3)c3c2-c2cccc(C)c2S(=O)(=O)C3)C1` gave a negative-log IC50 (pIC50) of 7.02. `COc1ccc(Cn2nc(C(=O)N3CCOCC3)c3c2-c2ccccc2S(=O)(=O)C3)cc1` had a pIC50 of 6.34. This pIC50 lies 0.68 log units lower than the previous one. As for `O=C(c1nn(C2CCCN(CCN3CC[C@@H](F)C3)C2)c2c1CS(=O)(=O)c1ccccc1-2)N1CCOCC1` (some centres not stated), the pIC50 is 7.47.

`CN1CCC(Cn2nc(C(=O)N3CCOCC3)c3c2-c2ccccc2S(=O)(=O)C3)CC1` had a pIC50 of 5.58. The figure for `O=C(c1nn(-c2ccc(CN3CCC(O)C3)cc2)c2c1CS(=O)(=O)c1ccccc1-2)N1CCOCC1` (configuration not stated) is 6.07; for `COCc1cccc(-n2nc(C(=O)N3CCOCC3)c3c2-c2ccccc2S(=O)(=O)C3)c1` it is 6.00; for `O=C(c1nn(-c2ccc(CN3CCOCC3)cc2)c2c1CS(=O)(=O)c1ccccc1-2)N1CCOCC1` it is 6.77.

For `O=C(CC1CCOCC1)N1CCC[C@H](n2nc(C(=O)N3CCOCC3)c3c2-c2ccccc2S(=O)(=O)C3)C1`, the negative-log IC50 (pIC50) is 6.46. This pIC50 lies 0.31 log units lower than the previous one.

For `O=C(c1nn(-c2cccc(Nc3ccccc3)c2)c2c1CS(=O)(=O)c1ccccc1-2)N1CCOCC1`, the pIC50 is 5.57. The figure for `COc1cccc2c1S(=O)(=O)Cc1c(C(=O)N3CCOCC3)nn([C@H]3CCCN(CCN4CCOCC4)C3)c1-2` is 7.23; for `O=C(c1nn([C@@H]2CCCN(CCN3CCOCC3)C2)c2c1CS(=O)(=O)c1c(Cl)cccc1-2)N1CCOCC1` it is 5.28.

`CCc1nc(-c2cccc(-n3nc(C(=O)N4CCOCC4)c4c3-c3ccccc3S(=O)(=O)C4)c2)no1`: the pIC50 was 5.59. The figure for `COCc1ccc(-n2nc(C(=O)N3CCOCC3)c3c2-c2ccccc2S(=O)(=O)C3)cc1` is 6.18. For `O=C(c1nn([C@H]2CCCN(CCN3CCOCC3)C2)c2c1CS(=O)(=O)c1c(Cl)cccc1-2)N1CCOCC1` the value was 7.52.

Consider `COC1CCN(Cc2ccc(-n3nc(C(=O)N4CCOCC4)c4c3-c3ccccc3S(=O)(=O)C4)cc2)C1` (configuration not stated), for which the pIC50 was 7.23. This pIC50 is 0.29 log units lower than that of the molecule before. For `O=C(c1nn(C2CN(CCN3CCOCC3)C2)c2c1CS(=O)(=O)c1ccccc1-2)N1CCOCC1` the value was 6.63; for `COCC(=O)N1CCC[C@H](n2nc(C(=O)N3CCOCC3)c3c2-c2ccccc2S(=O)(=O)C3)C1`, 6.58; for `COCCN1CCC(Cn2nc(C(=O)N3CCOCC3)c3c2-c2ccccc2S(=O)(=O)C3)CC1`, 6.17. The figure for `CC(C)(C)CCN1CCCC(n2nc(C(=O)N3CCOCC3)c3c2-c2ccccc2S(=O)(=O)C3)C1` (configuration not stated) is 6.23; for `O=C(c1nn(-c2ccccc2)c2c1CS(=O)(=O)c1sccc1-2)N1CCOCC1` it is 5.77. For `O=C(c1nn(C2CN3CCC2CC3)c2c1CS(=O)(=O)c1ccccc1-2)N1CCOCC1` (configuration not stated) the value was 4.99. The molecule `O=C(c1nn(C2CCCC2)c2c1CS(=O)(=O)c1ccccc1-2)N1CCOCC1` showed a pIC50 of 6.69.

As for `O=C(c1nn([C@@H]2CCN(C3CCOCC3)C2)c2c1CS(=O)(=O)c1ccccc1-2)N1CCOCC1`, the pIC50 was 7.35. `CN1CCCC(n2nc(C(=O)N3CCOCC3)c3c2-c2ccccc2S(=O)(=O)C3)C1` (configuration not stated) showed a negative logarithm of the IC50 (pIC50) of 6.11. Consider `O=C(c1nn([C@@H]2CCCN(C3CCCOC3)C2)c2c1CS(=O)(=O)c1ncccc1-2)N1CCOCC1` (some centres not stated), for which the negative-log IC50 (pIC50) was 5.53.

In turn, `O=C(c1nn(-c2ccccc2)c2c1CS(=O)(=O)c1cc(Br)ccc1-2)N1CCOCC1` gave a pIC50 of 6.04. With `O=C(c1nn(-c2cccc(-c3ccccc3)c2)c2c1CS(=O)(=O)c1ccccc1-2)N1CCOCC1`, the pIC50 was 6.12. The pIC50 values of the last two molecules are within 0.2 log units of each other. For `Cn1nc(C(=O)N2CCOCC2)c2c1-c1cccc(F)c1S(=O)(=O)C2` the value was 6.16. The molecule `O=C(c1ccc2c(c1)-c1c(c(C(=O)N3CCOCC3)nn1-c1ccccc1)CS2(=O)=O)N1CCOCC1` had a pIC50 of 5.52. The figure for `CC(C)(C)OC(=O)N1CCC(n2nc(C(=O)N3CCOCC3)c3c2-c2ccccc2S(=O)(=O)C3)C1` (configuration not stated) is 5.92; for `Cc1ccc(-n2nc(C(=O)N3CCOCC3)c3c2-c2ccccc2S(=O)(=O)C3)cc1` it is 6.16. The figure for `CCCCn1nc(C(=O)N2CCOCC2)c2c1-c1ccccc1S(=O)(=O)C2` is 6.42; for `O=C(c1nn(-c2ccc(Cl)cc2)c2c1CS(=O)(=O)c1ccccc1-2)N1CCOCC1` it is 6.05; for `COCN1c2c(C(=O)N3CCOCC3)nn(-c3ccccc3)c2-c2ccccc2S1(=O)=O` it is 4.93.

`O=C(c1nn(C2CCN(C3CCOCC3)C2)c2c1CS(=O)(=O)c1ccccc1-2)N1CCOCC1` (configuration not stated): the pIC50 was 7.11. Against the preceding molecule, the pIC50 is 2.18 log units higher. Take `COc1cccc(-n2nc(C(=O)N3CCOCC3)c3c2-c2ccccc2S(=O)(=O)C3)c1`: the negative-log IC50 (pIC50) is 5.88.
